Experimental data published in ChEMBL document CHEMBL3885881, “DrugMatrix”.

Organism: Rattus norvegicus
Test: DrugMatrix - Regimen: Daily Repeat
Format: toxicity, organism-based, Sprague-Dawley
Parameters: regimen Daily Repeat, gender Male, age 6-8 weeks
Conditions: in vivo, sc, route subcutaneous, […]; for SODIUM / TOTAL BILIRUBIN / TOTAL PROTEIN / URIC ACID / ALANINE AMINOTRANSFERASE / ALBUMIN / ALKALINE PHOSPHATASE / ASPARTATE AMINOTRANSFERASE / BLOOD UREA NITROGEN / CARBON DIOXIDE / CHLORIDE / CHOLESTEROL / CREATINE PHOSPHOKINASE / CREATININE / GLUCOSE / LACTATE DEHYDROGENASE / LIPASE / PHOSPHORUS / POTASSIUM: tissue Plasma; for ABSOLUTE BASOPHIL / ABSOLUTE EOSINOPHIL / ABSOLUTE LYMPHOCYTE / ABSOLUTE MONOCYTE / ABSOLUTE SEGMENTED NEUTROPHIL / BASOPHIL / EOSINOPHIL / ERYTHROCYTE COUNT / HEMATOCRIT / HEMOGLOBIN / LEUKOCYTE COUNT / LYMPHOCYTE / MEAN CORPUSCULAR HEMOGLOBIN / MEAN CORPUSCULAR HEMOGLOBIN CONCENTRATION / MEAN CORPUSCULAR VOLUME / MONOCYTE / NEUTROPHIL / NUCLEATED RED BLOOD CELLS / PLATELET COUNT: tissue Blood
[1] = 2 mg/kg, 120 h, dose level M2, time 5 day
[2] = 25 mg/kg, 72 h, dose level High, time 3 day
[3] = 25 mg/kg, 120 h, dose level High, time 5 day
[4] = 72 h, dose 0.25 mg/Kg, dose level M1, time 3 day
[5] = 120 h, dose 0.25 mg/Kg, dose level M1, time 5 day

C[C@]12CC[C@@H]3c4ccc(OC(=O)c5ccccc5)cc4CC[C@H]3[C@@H]1CC[C@@H]2O [ESTRADIOL BENZOATE]
SODIUM [1]: 141.87 MEQ/L | TOTAL BILIRUBIN [1]: 0.13 mg/dL | TOTAL PROTEIN [1]: 5.93 G/DL | URIC ACID [1]: 2.07 mg/dL | ABSOLUTE BASOPHIL [2]: 0 CELLS/uL | ABSOLUTE EOSINOPHIL [2]: 0 CELLS/uL | ABSOLUTE LYMPHOCYTE [2]: 7876 CELLS/uL | ABSOLUTE MONOCYTE [2]: 263 CELLS/uL | ABSOLUTE SEGMENTED NEUTROPHIL [2]: 1061 CELLS/uL | BASOPHIL [2]: 0% | EOSINOPHIL [2]: 0% | ERYTHROCYTE COUNT [2]: 5.97 x10E6/uL | HEMATOCRIT [2]: 37% | HEMOGLOBIN [2]: 13.8 G/DL | LEUKOCYTE COUNT [2]: 9.2 x10E3/uL | LYMPHOCYTE [2]: 86% | MEAN CORPUSCULAR HEMOGLOBIN [2]: 23.2 pg | MEAN CORPUSCULAR HEMOGLOBIN CONCENTRATION [2]: 37.33 G/DL | MEAN CORPUSCULAR VOLUME [2]: 62.1 fL | MONOCYTE [2]: 2.67% | NEUTROPHIL [2]: 11.33% | NUCLEATED RED BLOOD CELLS [2]: 0 /100WBC | PLATELET COUNT [2]: 1341 x10E3/uL | ALANINE AMINOTRANSFERASE [2]: 32.33 u/L | ALBUMIN [2]: 4.13 G/DL | ALKALINE PHOSPHATASE [2]: 479.33 u/L | ASPARTATE AMINOTRANSFERASE [2]: 66.67 u/L | BLOOD UREA NITROGEN [2]: 10.33 mg/dL | CARBON DIOXIDE [2]: 29 mmol/L | CHLORIDE [2]: 101.33 MEQ/L | CHOLESTEROL [2]: 26.67 mg/dL | CREATINE PHOSPHOKINASE [2]: 407.67 u/L | CREATININE [2]: 0.16 mg/dL | GLUCOSE [2]: 188.67 mg/dL | LACTATE DEHYDROGENASE [2]: 154.67 u/L | LIPASE [2]: 7.33 u/L | PHOSPHORUS [2]: 11.1 mg/dL | POTASSIUM [2]: 5.86 MEQ/L | SODIUM [2]: 141.4 MEQ/L | TOTAL BILIRUBIN [2]: 0.1 mg/dL | TOTAL PROTEIN [2]: 5.73 G/DL | URIC ACID [2]: 2 mg/dL | ABSOLUTE BASOPHIL [3]: 0 CELLS/uL | ABSOLUTE EOSINOPHIL [3]: 23.33 CELLS/uL | ABSOLUTE LYMPHOCYTE [3]: 7006.67 CELLS/uL | ABSOLUTE MONOCYTE [3]: 182 CELLS/uL | ABSOLUTE SEGMENTED NEUTROPHIL [3]: 921.33 CELLS/uL | BASOPHIL [3]: 0% | EOSINOPHIL [3]: 0.33% | ERYTHROCYTE COUNT [3]: 5.89 x10E6/uL | HEMATOCRIT [3]: 35% | HEMOGLOBIN [3]: 13.6 G/DL | LEUKOCYTE COUNT [3]: 8.13 x10E3/uL | LYMPHOCYTE [3]: 86.33% | MEAN CORPUSCULAR HEMOGLOBIN [3]: 23.13 pg | MEAN CORPUSCULAR HEMOGLOBIN CONCENTRATION [3]: 38.9 G/DL | MEAN CORPUSCULAR VOLUME [3]: 59.43 fL | MONOCYTE [3]: 2.67% | NEUTROPHIL [3]: 10.67% | NUCLEATED RED BLOOD CELLS [3]: 0 /100WBC | PLATELET COUNT [3]: 988.67 x10E3/uL | ALANINE AMINOTRANSFERASE [3]: 53 u/L | ALBUMIN [3]: 5.07 G/DL | ALKALINE PHOSPHATASE [3]: 360 u/L | ASPARTATE AMINOTRANSFERASE [3]: 106.33 u/L | BLOOD UREA NITROGEN [3]: 14 mg/dL | CARBON DIOXIDE [3]: 27.33 mmol/L | CHLORIDE [3]: 98.67 MEQ/L | CHOLESTEROL [3]: 32.67 mg/dL | CREATINE PHOSPHOKINASE [3]: 366.33 u/L | CREATININE [3]: 0.19 mg/dL | GLUCOSE [3]: 130.67 mg/dL | LACTATE DEHYDROGENASE [3]: 223.33 u/L | LIPASE [3]: 7.67 u/L | PHOSPHORUS [3]: 11.37 mg/dL | POTASSIUM [3]: 5.61 MEQ/L | SODIUM [3]: 143.3 MEQ/L | TOTAL BILIRUBIN [3]: 0.1 mg/dL | TOTAL PROTEIN [3]: 7.6 G/DL | URIC ACID [3]: 2.1 mg/dL | ABSOLUTE BASOPHIL [4]: 0 CELLS/uL | ABSOLUTE EOSINOPHIL [4]: 0 CELLS/uL | ABSOLUTE LYMPHOCYTE [4]: 8002.33 CELLS/uL | ABSOLUTE MONOCYTE [4]: 146.33 CELLS/uL | ABSOLUTE SEGMENTED NEUTROPHIL [4]: 218 CELLS/uL | BASOPHIL [4]: 0% | EOSINOPHIL [4]: 0% | ERYTHROCYTE COUNT [4]: 6.05 x10E6/uL | HEMATOCRIT [4]: 38.6% | HEMOGLOBIN [4]: 15.03 G/DL | LEUKOCYTE COUNT [4]: 8.37 x10E3/uL | LYMPHOCYTE [4]: 95.67% | MEAN CORPUSCULAR HEMOGLOBIN [4]: 24.83 pg | MEAN CORPUSCULAR HEMOGLOBIN CONCENTRATION [4]: 39.03 G/DL | MEAN CORPUSCULAR VOLUME [4]: 63.73 fL | MONOCYTE [4]: 1.67% | NEUTROPHIL [4]: 2.67% | NUCLEATED RED BLOOD CELLS [4]: 0 /100WBC | PLATELET COUNT [4]: 1109.67 x10E3/uL | ALANINE AMINOTRANSFERASE [4]: 61.67 u/L | ALBUMIN [4]: 4.2 G/DL | ALKALINE PHOSPHATASE [4]: 323.67 u/L | ASPARTATE AMINOTRANSFERASE [4]: 81.33 u/L | BLOOD UREA NITROGEN [4]: 11.33 mg/dL | CARBON DIOXIDE [4]: 26.33 mmol/L | CHOLESTEROL [4]: 75.67 mg/dL | CREATINE PHOSPHOKINASE [4]: 295 u/L | CREATININE [4]: 0.23 mg/dL | GLUCOSE [4]: 126 mg/dL | LACTATE DEHYDROGENASE [4]: 285.67 u/L | LIPASE [4]: 12.33 u/L | PHOSPHORUS [4]: 10.4 mg/dL | TOTAL BILIRUBIN [4]: 0.1 mg/dL | TOTAL PROTEIN [4]: 6.03 G/DL | URIC ACID [4]: 0.43 mg/dL | ABSOLUTE BASOPHIL [5]: 0 CELLS/uL | ABSOLUTE EOSINOPHIL [5]: 45.33 CELLS/uL | ABSOLUTE LYMPHOCYTE [5]: 12282.67 CELLS/uL | ABSOLUTE MONOCYTE [5]: 135 CELLS/uL | ABSOLUTE SEGMENTED NEUTROPHIL [5]: 937 CELLS/uL | BASOPHIL [5]: 0% | EOSINOPHIL [5]: 0.33% | ERYTHROCYTE COUNT [5]: 5.99 x10E6/uL | HEMATOCRIT [5]: 37.83% | HEMOGLOBIN [5]: 14.7 G/DL | LEUKOCYTE COUNT [5]: 13.4 x10E3/uL | LYMPHOCYTE [5]: 91.67% | MEAN CORPUSCULAR HEMOGLOBIN [5]: 24.53 pg | MEAN CORPUSCULAR HEMOGLOBIN CONCENTRATION [5]: 38.87 G/DL | MEAN CORPUSCULAR VOLUME [5]: 63.13 fL | MONOCYTE [5]: 1% | NEUTROPHIL [5]: 7% | NUCLEATED RED BLOOD CELLS [5]: 0 /100WBC | PLATELET COUNT [5]: 1305.33 x10E3/uL | ALANINE AMINOTRANSFERASE [5]: 47.67 u/L | ALBUMIN [5]: 4 G/DL | ALKALINE PHOSPHATASE [5]: 486.33 u/L | ASPARTATE AMINOTRANSFERASE [5]: 78.33 u/L | BLOOD UREA NITROGEN [5]: 15.33 mg/dL | CARBON DIOXIDE [5]: 22.67 mmol/L | CHLORIDE [5]: 104.33 MEQ/L | CHOLESTEROL [5]: 33 mg/dL | CREATINE PHOSPHOKINASE [5]: 654 u/L | CREATININE [5]: 0.27 mg/dL | GLUCOSE [5]: 190 mg/dL | LACTATE DEHYDROGENASE [5]: 308 u/L | LIPASE [5]: 9 u/L | PHOSPHORUS [5]: 12.63 mg/dL | POTASSIUM [5]: 4.9 MEQ/L | SODIUM [5]: 143.3 MEQ/L | TOTAL BILIRUBIN [5]: 0.1 mg/dL | TOTAL PROTEIN [5]: 5.73 G/DL | URIC ACID [5]: 1.6 mg/dL
